Results: article PMC12455572, “Amphipathic Proline-Rich Cell Penetrating Peptides for Targeting Mitochondria” (ACS Chemical Biology, 2025)
Entries after “also recorded” stand apart in the source; their conditions may differ. Where a SMILES comes first, the peptide text is derived from it. [ ]: non-standard residue; d: D form. The star is where a group is joined. 5FAM = O=C1OC2(c3ccc(O)cc3Oc3cc(O)ccc32)c2ccc(C(=O)*)cc21; Pro(cis-4-guanidino) = NC(N)=N[C@@H]1CN[C@H](C(=O)O)C1; Cha = N[C@@H](CC1CCCCC1)C(=O)O; Ahx = NCCCCCC(=O)O

Columns and labels:
[1] = tested on: MCF-7 cells; assay: Colocalization of peptide with MitoTracker (Manders' coefficients from confocal images); assay type: cell-based; details: MCF-7, after 24 h rest versus after 1 h incubation, Figure S7B; 10 µM for (ChaZZ)3, otherwise concentration not stated
Description: MCF-7 cells were seeded in a 8-μwell Ibidi plate at 25′000 cells/well in DMEM (100 μL, 10% FCS) and allowed to adhere overnight. The medium was removed, the cells were washed with PBS (200 μL, 1x) and incubated with the peptide solution at 20 μM, 10 μM, 5 μM or 2.5 μM in DMEM (200 μL, 1% FCS) for 1 h at 37 °C. The medium was removed, and the cells were washed with PBS (200 μL, 2x). MitoTracker Deep Red was distributed at 20 nM in DMEM (200 μL, 1% FBS) and the cells were incubated at 37 °C for 25 min. The medium was removed, and the cells were washed with PBS (200 μL, 2x). Hoechst333342 was distributed at 2 μM in DMEM (200 μL, 1% FBS) and the cells were incubated at 37 °C for 5 min. The cells were washed with PBS (200 μL, 2x), and FluoroBrite medium (200 μL) was added. The live cells were monitored on the confocal microscope at 37 °C, 5% CO2.
For the cells subjected to a 24 h rest period, the FluoroBrite medium was exchanged for DMEM (200 μL, 10% FBS) after the initial imaging, and the cells were kept in this medium for 24 h. The culture medium was then exchanged for FluoroBrite DMEM, and the cells were imaged again.
Fluorescence images of cells were collected using a Nikon Eclipse T1 (inverse) microscope equipped with a Yokogawa Confocal Scanner Unit CSU-W1-T2, containing a spinning disk (50 µm). The microscope is equipped with two EMCCD Andor iXon Ultra cameras. Emission in the blue channel (405 nm) was filtered with a 450/50 bandpass filter, emission in the green channel (488 nm) was filtered with a 525/50 bandpass, and the emission in the red channel (641 nm) was filtered with a 708/75 bandpass filter. Fluorescence images were obtained using an oil-immersion objective with a magnification of 100 × 1.4 CFI Plan Apo Oil.
Each experiment was repeated at least three times. The images acquired were adjusted using ImageJ2 software. Correlation coefficients were determined on entire images using JaCOP plugin.1 […]
MCF-7 cells were seeded in a 8-µwell Ibidi plate at 25’000 cells/well in DMEM (100 µL, 10% FCS) and allowed to adhere overnight. The medium was removed. The cells were washed with PBS (200 µL, 1x) and incubated with the peptide solution at 20 µM, 10 µM, 5 µM, or 2.5 µM in DMEM (200 µL, 1% FCS) for 1 h at 37 °C. The medium was removed, and the cells were washed with PBS (200 µL, 2x).
For imaging of mitochondria, MitoTracker Deep Red was added as described in the manuscript. […]
PBS (200 µL, 2x). For imaging of the nucleus, Hoechst333342 was added at (200 µL, 2 µM in DMEM, 1% FBS) followed by incubation of the cells at 37 °C for 5 min. The cells were washed with PBS (200 µL, 2x), and FluoroBrite medium (200 µL) was added. The live cells were monitored on the confocal microscope […]
MCF-7 cells were seeded in a 96-well plate at 7’500 cells/well in cell culture medium (200 µL, 10% FCS), and allowed to adhere overnight. The medium was removed, the cells were washed with PBS (100 µL, 1x) and incubated with the peptide solution at 20 µM, 10 µM, 5 µM, or 2.5 µM in DMEM (200 µL, 1% FCS) for 1 h at 37 °C. The medium was removed, and the cells were washed with PBS (100 µL, 1x). The MTT solution in DMEM (110 µL, 1.2 mM, 1% FBS) was added. The cells were incubated for 3 h at 37 °C. The supernatant was carefully removed, and DMSO (100 µL) was added. The plate was gently shaken for 30 min and the absorption of formazan solution at 570 nm was measured on the plate reader. […]

[2] = tested on: MCF-7 cells; assay: Flow cytometry (FACS): overall cellular uptake; assay type: cell-based; details: for Fold higher cellular uptake with additional C-terminal hydrophobic residue (FACS): 1 h, 37 °C, versus the peptide without the C-terminal Cha/ChPro; for Total cellular fluorescence after the 24 h rest compared with directly after 1 h incubation (FACS): MCF-7, 1 h incubation at 37 °C, then 24 h rest in DMEM + 10% FBS
Description: MCF-7 cells were seeded in a 24-well plate at 150′000 cells/well in DMEM (1 mL, 10% FCS), and allowed to adhere overnight. The medium was removed, the cells were washed with PBS (250 μL, 1x) and incubated with the peptide solution at 20 μM, 10 μM, 5 μM or 2.5 μM in medium (200 μL, 1% FCS) for 1 h at 37 °C. The medium was removed, and the cells were washed with PBS (250 μL, 2x). Trypsin (100 μL, 0.05%) was added, and the cells were incubated at 37 °C for 5 min. D-PBS with Mg^2+ and Ca^2+ (300 μL, 4 °C) was added, the cells were resuspended and centrifuged for 5 min at 0.4 rcf. The supernatant was carefully removed, and the cells were resuspended in a solution of PBS containing 1.5 μM PI and 2 mM EDTA (400 μL at 4 °C). The cells were added to FACS tubes and kept on ice prior to analysis. Each sample contained 10′000 cells and was analyzed in triplicate. Each experiment was repeated three times.
For the experiments that included the 24 h rest period, the peptides were incubated as described above. After the 1 h incubation time, the cells were washed with PBS (250 μL, 2x), DMEM (250 μL, 10% FBS) was added, and the cells were kept at 37 °C, 5% CO2 for 24 h. For a direct comparison of the effect of a 24 h rest period, another set of peptides was incubated with the cells for 1 h. Then, cells of both sets of experiments (1 h followed by the 24 h rest period versus 1 h incubation) were washed with PBS, treated with trypsin, and prepared for FACS analysis as described above. Each sample was run in triplicate and was repeated three times. […]
MCF-7 cells were obtained from the American Type Culture Collection (ATCC).
The cells were grown in a humidified 5% CO2 atmosphere at 37 °C Dulbecco’s Modified Eagle’s Medium (DMEM), high glucose, GlutaMAXTM (4 mM) supplemented with L-glutamine (4 mM), gentamicin (10 mg/L), […]
Fluorescence-Activated Cell Sorting (FACS) analyzer
On a BD LSRFortessa flow cytometer, CF was excited at 488 nm and monitored with 530/30 bandpass, PI was excited at 561 nm and monitored with a 610/20 bandpass. Mean fluorescence values were determined from the histograms using FlowJo 10.0.6 software while dead cells were removed according to PI staining.
Below is an example, CF-Ahx-(ChaZZ)3, of gating, set on untreated cells and propagated to all samples.
Each sample was run in triplicate, and each experiment was repeated at least three times.
(1 picture or pasted object on this page, not shown here)

Compound	Fold change of MitoTracker overlap with the peptide (M2) after 24 h rest [1]	Fold change of peptide overlap with MitoTracker (M1) after 24 h rest [1]	Fold higher cellular uptake with additional C-terminal hydrophobic residue (FACS) ([2]; MCF-7, 5 μM) [fold]	Fold higher cellular uptake with additional C-terminal hydrophobic residue (FACS) ([2]; MCF-7, 10 μM) [fold]	Fold higher cellular uptake with additional C-terminal hydrophobic residue (FACS) ([2]; MCF-7, 20 μM) [fold]	Total cellular fluorescence after the 24 h rest compared with directly after 1 h incubation (FACS) [2]
N=C(N)N[C@H]1C[C@@H](C(=O)N2C[C@@H](NC(=N)N)C[C@H]2C(=O)N[C@@H](CC2CCCCC2)C(=O)N2C[C@@H](NC(=N)N)C[C@H]2C(=O)N2C[C@@H](NC(=N)N)C[C@H]2C(=O)N[C@@H](CC2CCCCC2)C(=O)N2C[C@@H](NC(=N)N)C[C@H]2C(=O)N2C[C@@H](NC(=N)N)C[C@H]2C(=O)N[C@@H](CC2CCCCC2)C(N)=O)N(C(=O)[C@H](CC2CCCCC2)NC(=O)CCCCCNC(=O)c2ccc3c(c2)C(=O)OC32c3ccc(O)cc3Oc3cc(O)ccc32)C1 [(ChaZZ)3-Cha, CF-Ahx-(ChaZZ)3-Cha-NH2] ({5FAM-Ahx}-[Cha][Pro(cis-4-guanidino)][Pro(cis-4-guanidino)][Cha][Pro(cis-4-guanidino)][Pro(cis-4-guanidino)][Cha][Pro(cis-4-guanidino)][Pro(cis-4-guanidino)][Cha]-NH2)	up to 3.6 fold	more than 1.5 fold	3	3	1.5	constant or increased
CF-Ahx-(ChaZZ)3-NH2		> 2 fold				lower; also recorded: less fluorescence was observed after 24 h
CF-Ahx-(ChaZZ)2-Cha-NH2	0.4 fold	1.3 fold	2	4	6	lower; also recorded: Significantly less fluorescence was observed after 24 h
